The values below come from publication PMC7763472, “High Capability of Pentagalloylglucose (PGG) in Inhibiting Multiple Types of Membrane Ionic Currents” (International Journal of Molecular Sciences, 2020).

The target of this test is T1, proton-activated Cl− channel (PAC) (Rattus norvegicus, UniProt Q66H28).
T1 construct: gene Pacc1
Kind of test: whole-cell patch clamp of native IPAC in GH3 cells, pH […], single concentration […]. Type of test: cell-based.

The structures appear in SMILES notation.

The term inhibition denotes the drop in the measured response relative to a control, in per cent. The low end stands for a weak effect, the high end for a strong effect.

T1 sequence (Q66H28 whole entry): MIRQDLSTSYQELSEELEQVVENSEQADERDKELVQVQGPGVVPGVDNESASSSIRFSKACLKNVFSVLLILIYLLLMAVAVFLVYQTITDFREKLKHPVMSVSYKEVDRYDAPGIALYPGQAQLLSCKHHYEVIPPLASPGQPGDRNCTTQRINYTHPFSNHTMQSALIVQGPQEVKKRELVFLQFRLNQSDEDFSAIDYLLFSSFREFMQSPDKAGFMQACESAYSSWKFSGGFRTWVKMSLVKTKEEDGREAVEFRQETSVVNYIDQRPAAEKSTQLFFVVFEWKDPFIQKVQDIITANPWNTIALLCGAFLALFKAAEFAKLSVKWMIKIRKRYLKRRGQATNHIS

`CCCCC1(C2CCCC2)Cc2cc(OCCCC(=O)O)c(Cl)c(Cl)c2C1=O` (stereo not shown) [DCPIB, 4-[(2-Butyl-6,7-dichloro-2-cyclopentyl-2,3-dihydro-1-oxo-1H-inden-5yl)oxy] butanoic acid] yielded an inhibition at 10 µM of 51%.
